Data on 13 compounds can be found in patent US20240018123A1, “COMPOUND FOR INHIBITING OR DISINTEGRATING ANDROGEN RECEPTOR, AND PHARMACEUTICAL USE THEREOF” (KOREA RESEARCH INSTITUTE OF CHEMICAL TECHNOLOGY, priority 2020, published 2024).

In series [1] the target is T1, Androgen receptor (AR) (Homo sapiens, UniProt P10275, T878A).
T1 construct: 5.5×10^5 LNCap cells were injected into each well of a 6-well plate; endogenous in cells; host or cells: LNCaP
T1 sequence (P10275 1-920 T878A): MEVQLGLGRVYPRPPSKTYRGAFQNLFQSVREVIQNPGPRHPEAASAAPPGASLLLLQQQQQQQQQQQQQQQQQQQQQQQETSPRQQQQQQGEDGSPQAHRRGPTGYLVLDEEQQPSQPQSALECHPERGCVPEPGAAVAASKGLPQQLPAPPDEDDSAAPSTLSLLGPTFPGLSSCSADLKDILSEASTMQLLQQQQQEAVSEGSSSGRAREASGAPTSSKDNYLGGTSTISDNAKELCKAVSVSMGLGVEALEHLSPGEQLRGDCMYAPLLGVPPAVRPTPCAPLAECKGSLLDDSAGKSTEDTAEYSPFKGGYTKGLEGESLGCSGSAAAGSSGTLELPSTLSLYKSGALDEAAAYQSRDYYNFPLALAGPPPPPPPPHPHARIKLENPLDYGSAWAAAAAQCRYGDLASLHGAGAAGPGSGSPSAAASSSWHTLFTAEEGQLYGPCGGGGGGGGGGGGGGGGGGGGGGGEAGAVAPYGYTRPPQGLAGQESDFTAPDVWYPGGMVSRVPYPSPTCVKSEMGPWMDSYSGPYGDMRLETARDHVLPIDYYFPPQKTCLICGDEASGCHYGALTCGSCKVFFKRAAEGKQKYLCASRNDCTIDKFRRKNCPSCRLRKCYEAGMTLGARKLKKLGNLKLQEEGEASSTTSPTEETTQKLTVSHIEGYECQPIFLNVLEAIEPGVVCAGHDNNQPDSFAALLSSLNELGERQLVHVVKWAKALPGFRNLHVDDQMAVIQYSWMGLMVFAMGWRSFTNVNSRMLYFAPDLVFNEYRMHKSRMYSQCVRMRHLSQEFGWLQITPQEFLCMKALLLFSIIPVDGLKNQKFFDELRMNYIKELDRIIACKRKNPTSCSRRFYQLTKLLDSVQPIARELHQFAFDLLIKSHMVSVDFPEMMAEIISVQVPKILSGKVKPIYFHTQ
Put plainly: Assessment of AR proteolytic activity (Western blotting of LNCap cell lysates). It counts as cell-based. The settings on record: 24 hours of treatment, Western blotting quantified with Image J; for remaining activity at 1 µM: read-out: Degradation (1 μM treated in LNCaP, % AR remaining). In outline:
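LNCap cells seeded at 5.5×10^5 per well and treated with compound for 24 hours. Lysates prepared in RIPA buffer (pH 7.5, with protease inhibitors). AR protein levels assessed by Western blot with densitometric quantification.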

For series [2], the system named is VCaP cells. Description: Cytotoxicity assessment (Cell-titer-glo cell viability), VCaP.
[3] abbreviates: read-out: VCaP (CC50), VCaP cells, 6 days of treatment, Cell-titer-glo, vs DMSO.
Setting [4] is: Homo sapiens, VCaP, 144 h, read-out: VCaP (CC50, μM).

Where two headings read alike, the source gives them in different places.

For `CC1(C)C(NC(=O)c2ccc(N3CCN(CCCOC4CCN(C(=O)C5CCN(c6ccc7nnn(C8CCC(=O)NC8=O)c(=O)c7c6)CC5)CC4)CC3)cc2)C(C)(C)C1Oc1ccc(C#N)c(Cl)c1` (centres unmarked) [Example 35, N-((1r,3r)-3-(3-chloro-4-cyanophenoxy)-2,2,4,4-tetramethylcyclobutyl)-4-(4-(3-((1-(1-(3-(2,6-dioxopiperidin-3-yl)-4-oxo-3,4-dihydrobenzo[d][1,2,3]triazin-6-yl)piperidine-4-carbonyl)piperidin-4-yl)oxy)propyl)piperazin-1-yl)benzamide], in series [1], the “Degradation (1 μM treated in LNCaP, % AR remaining)” value is given as 6.4%. Moreover, the CC50 in series [2] (setting [3]) is 0.0525 µM.

On to `CC1(C)C(NC(=O)c2ccc(N3CCN(CCCOC4CCN(C(=O)CNc5ccc6nnn(C7CCC(=O)NC7=O)c(=O)c6c5)CC4)CC3)cc2)C(C)(C)C1Oc1ccc(C#N)c(Cl)c1` (centres unmarked) [Example 37, N-((1r,3r)-3-(3-chloro-4-cyanophenoxy)-2,2,4,4-tetramethylcyclobutyl)-4-(4-(3-((1-((3-(2,6-dioxopiperidin-3-yl)-4-oxo-3,4-dihydrobenzo[d][1,2,3]triazin-6-yl)glycyl)piperidin-4-yl)oxy)propyl)piperazin-1-yl)benzamide], for which, in series [1], the “Degradation (1 μM treated in LNCaP, % AR remaining)” value was 14.9%. Moreover, the cytotoxic concentration (CC50) in series [2] (setting [3]) was found to be 0.0291 µM.

With `CC1(C)[C@H](NC(=O)c2ccc(N3CCN(C(=O)CNc4ccc5nnn(C6CCC(=O)NC6=O)c(=O)c5c4)CC3)cc2)C(C)(C)[C@H]1Oc1ccc(C#N)c(Cl)c1` (some centres unmarked) [Example 40, N-((1r,3r)-3-(3-chloro-4-cyanophenoxy)-2,2,4,4-tetramethylcyclobutyl)-4-(4-((3-(2,6-dioxopiperidin-3-yl)-4-oxo-3,4-dihydrobenzo[d][1,2,3]triazin-6-yl)glycyl)piperazin-1-yl)benzamide], the “Degradation (1 μM treated in LNCaP, % AR remaining)” value in series [1] stood at 19.7%. In addition, the cytotoxic concentration (CC50) in series [2] (setting [3]) was 0.0243 µM.

`CC1(C)[C@H](NC(=O)c2ccc(N3CCN(C(=O)C4CCN(c5ccc6nnn(C7CCC(=O)NC7=O)c(=O)c6c5)CC4)CC3)cc2)C(C)(C)[C@H]1Oc1ccc(C#N)c(Cl)c1` (some centres unmarked) [Example 42, N-((1r,3r)-3-(3-chloro-4-cyanophenoxy)-2,2,4,4-tetramethylcyclobutyl)-4-(4-(1-(3-(2,6-dioxopiperidin-3-yl)-4-oxo-3,4-dihydrobenzo[d][1,2,3]triazin-6-yl)piperidine-4-carbonyl)piperazin-1-yl)benzamide]: the “Degradation (1 μM treated in LNCaP, % AR remaining)” value in series [1] is 10%. The CC50 in series [2] (setting [3]) is 0.0494 µM.

As for `CC1(C)C(NC(=O)c2ccc(N3CCN(CCCC4CCN(C(=O)C5CCN(c6ccc7nnn(C8CCC(=O)NC8=O)c(=O)c7c6)CC5)CC4)CC3)cc2)C(C)(C)C1Oc1ccc(C#N)c(Cl)c1` (centres unmarked) [Example 46, N-((1r,3r)-3-(3-chloro-4-cyanophenoxy)-2,2,4,4-tetramethylcyclobutyl)-4-(4-(3-(1-(1-(3-(2,6-dioxopiperidin-3-yl)-4-oxo-3,4-dihydrobenzo[d][1,2,3]triazin-6-yl)piperidine-4-carbonyl)piperidin-4-yl)propyl)piperazin-1-yl)benzamide], the “Degradation (1 μM treated in LNCaP, % AR remaining)” value in series [1] came out at 15.6%. For the same compound, in series [2] (setting [3]), the CC50 was determined as 0.0522 µM.

`CC1(C)[C@H](NC(=O)c2ccc(N3CCC(CN4CCN(C(=O)C5CCN(c6ccc7nnn(C8CCC(=O)NC8=O)c(=O)c7c6)CC5)CC4)CC3)cc2)C(C)(C)[C@H]1Oc1ccc(C#N)c(Cl)c1` (some centres unmarked) [Example 49, N-((1r,3r)-3-(3-chloro-4-cyanophenoxy)-2,2,4,4-tetramethylcyclobutyl)-4-(4-((4-(1-(3-(2,6-dioxopiperidin-3-yl)-4-oxo-3,4-dihydrobenzo[d][1,2,3]triazin-6-yl)piperidine-4-carbonyl)piperazin-1-yl)methyl)piperidin-1-yl)benzamide]: the remaining activity at 1 µM in series [1] is 8.6%. In series [2] (setting [4]), the half-maximal cytotoxic concentration (CC50) worked out at 0.0678 µM.

As for `CC1(C)[C@H](NC(=O)c2ccc(C3CCN(CC4CCN(c5ccc6nnn(C7CCC(=O)NC7=O)c(=O)c6c5)CC4)CC3)cc2)C(C)(C)[C@H]1Oc1ccc(C#N)c(Cl)c1` (some centres unmarked) [Example 50, N-((1r,3r)-3-(3-chloro-4-cyanophenoxy)-2,2,4,4-tetramethylcyclobutyl)-4-(1-((1-(3-(2,6-dioxopiperidin-3-yl)-4-oxo-3,4-dihydrobenzo[d][1,2,3]triazin-6-yl)piperidin-4-yl)methyl)piperidin-4-yl)benzamide], the remaining activity at 1 µM in series [1] amounted to 6.8%. The CC50 in series [2] (setting [4]) amounted to 0.223 µM.

Take `CC1(C)[C@H](NC(=O)c2ccc(C3CCN(CC4CCN(C(=O)C5CCN(c6ccc7nnn(C8CCC(=O)NC8=O)c(=O)c7c6)CC5)CC4)CC3)cc2)C(C)(C)[C@H]1Oc1ccc(C#N)c(Cl)c1` (some centres unmarked) [Example 51, N-((1r,3r)-3-(3-chloro-4-cyanophenoxy)-2,2,4,4-tetramethylcyclobutyl)-4-(1-((1-(1-(3-(2,6-dioxopiperidin-3-yl)-4-oxo-3,4-dihydrobenzo[d][1,2,3]triazin-6-yl)piperidine-4-carbonyl)piperidin-4-yl)methyl)piperidin-4-yl)benzamide]: the “Degradation (1 μM treated in LNCaP, % AR remaining)” value in series [1] turned out to be 10.4%. For the same compound, the CC50 in series [2] (setting [3]) was 0.228 µM.

As for `CC1(C)[C@H](NC(=O)c2ccc(C3CCN(CC4CCN(C(=O)C5CCN(c6ccc7nnn(C8CCC(=O)NC8=O)c(=O)c7c6)CC5)CC4)CC3)cc2)C(C)(C)[C@H]1Oc1ccc(C#N)c(Cl)c1` (some centres unmarked) [Example 52, N-((1r,3r)-3-(3-chloro-4-cyanophenoxy)-2,2,4,4-tetramethylcyclobutyl)-4-(1-((1-(1-(3-(2,6-dioxopiperidin-3-yl)-4-oxo-3,4-dihydrobenzo[d][1,2,3]triazin-6-yl)piperidine-4-carbonyl)piperidin-4-yl)methyl)piperidin-4-yl)benzamide], in series [1], the “Degradation (1 μM treated in LNCaP, % AR remaining)” value was 32.2%. In series [2] (setting [3]), the 50% cytotoxic concentration (CC50) stood at 0.0594 µM.

As for `CC1(C)C(NC(=O)c2ccc(N3CCN(CC4(O)CCN(C(=O)C5CCN(c6ccc7nnn(C8CCC(=O)NC8=O)c(=O)c7c6)CC5)CC4)CC3)cc2)C(C)(C)C1Oc1ccc(C#N)c(Cl)c1` (centres unmarked) [Example 55, N-((1r,3r)-3-(3-chloro-4-cyanophenoxy)-2,2,4,4-tetramethylcyclobutyl)-4-(4-((1-(1-(3-(2,6-dioxopiperidin-3-yl)-4-oxo-3,4-dihydrobenzo[d][1,2,3]triazin-6-yl)piperidine-4-carbonyl)-4-hydroxypiperidin-4-yl)methyl)piperazin-1-yl)benzamide], in series [1], the “Degradation (1 μM treated in LNCaP, % AR remaining)” value was determined as 8.6%. For the same compound, the cytotoxic concentration (CC50) in series [2] (setting [3]) was 0.0365 µM.

Regarding `CC1(C)[C@H](NC(=O)c2ccc(N3CCN(CC4(F)CCN(c5ccc6nnn(C7CCC(=O)NC7=O)c(=O)c6c5)CC4)CC3)cc2)C(C)(C)[C@H]1Oc1ccc(C#N)c(Cl)c1` (some centres unmarked) [Example 61, N-((1r,3r)-3-(3-chloro-4-cyanophenoxy)-2,2,4,4-tetramethylcyclobutyl)-4-(4-((1-(3-(2,6-dioxopiperidin-3-yl)-4-oxo-3,4-dihydrobenzo[d][1,2,3]triazin-6-yl)-4-fluoropiperidin-4-yl)methyl)piperazin-1-yl)benzamide], in series [1], the remaining activity at 1 µM was determined as 25%. For the same compound, the CC50 in series [2] (setting [4]) turned out to be 0.29 µM.

With `CC1(C)C(NC(=O)c2ccc(N3CCN(CC4(F)CCN(C(=O)C5CCN(c6ccc7nnn(C8CCC(=O)NC8=O)c(=O)c7c6)CC5)CC4)CC3)cc2)C(C)(C)C1Oc1ccc(C#N)c(Cl)c1` (centres unmarked) [Example 62, N-((1r,3r)-3-(3-chloro-4-cyanophenoxy)-2,2,4,4-tetramethylcyclobutyl)-4-(4-((1-(1-(3-(2,6-dioxopiperidin-3-yl)-4-oxo-3,4-dihydrobenzo[d][1,2,3]triazin-6-yl)piperidine-4-carbonyl)-4-fluoropiperidin-4-yl)methyl)piperazin-1-yl)benzamide], the “Degradation (1 μM treated in LNCaP, % AR remaining)” value in series [1] was 15%. Moreover, the cytotoxic concentration (CC50) in series [2] (setting [3]) was 0.0345 µM.

Take `CC1(C)C(NC(=O)c2ccc(N3CCN(C=C4CCN(C(=O)C5CCN(c6ccc7nnn(C8CCC(=O)NC8=O)c(=O)c7c6)CC5)CC4)CC3)cc2)C(C)(C)C1Oc1ccc(C#N)c(Cl)c1` (centres unmarked) [Example 65, N-((1r,3r)-3-(3-chloro-4-cyanophenoxy)-2,2,4,4-tetramethylcyclobutyl)-4-(4-((1-(1-(3-(2,6-dioxopiperidin-3-yl)-4-oxo-3,4-dihydrobenzo[d][1,2,3]triazin-6-yl)piperidine-4-carbonyl)piperidin-4-ylidene)methyl)piperazin-1-yl)benzamide]: the “Degradation (1 μM treated in LNCaP, % AR remaining)” value in series [1] is recorded as 25%. The CC50 in series [2] (setting [3]) was 0.044 µM.

The CC50 is the concentration at which the toxic effect on the cells reaches its halfway point.
